One assay deals with T1, mPGES-1 (Homo sapiens, UniProt O14684).
T1 sequence (O14684 1-152): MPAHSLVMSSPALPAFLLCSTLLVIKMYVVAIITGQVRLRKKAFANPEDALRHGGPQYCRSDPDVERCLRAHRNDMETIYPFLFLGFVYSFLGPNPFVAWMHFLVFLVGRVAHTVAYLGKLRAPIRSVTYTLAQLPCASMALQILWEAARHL
The settings on record: background statement; not selective for mPGES-1; cited from earlier work.

The target in the next assay is T2, mPGES-1 Q36E mutant (Homo sapiens, UniProt O14684, Q36E).
T2 sequence (O14684 1-152 Q36E): T1 sequence (O14684 1-152) with Q36E
In words: Activity assay, saturation kinetics for PGH2, Q36E mutant. It counts as biochemical. The settings on record: 2.5 mM GSH, 1-500 μM PGH2, errors expected to be very large, read-out: Experimental KM, this work. Here is the method:
(§1) Expression and Preparation for the Membrane Fraction of mPGES-1 and its Mutants in E. coli: The wild-type mPGES-1 and its mutant plasmids from XLI-Blue were transformed into M15 E. coli cells. Cells were grown in 500 ml TB media containing 100 μg/ml ampicillin and 25 μg/ml kanamycin at 37° C. with shaking at 270 rpm until OD reached 0.8. IPTG was added to a final concentration of 2 mM and cells were allowed to grow for additional 3 hours at 37° C. Cells were then harvested by centrifugation at 5000 g for 15 min at 4° C. […] The cells were broken by sonication, and then the cell lysate was cleared by centrifugation at 12,500 g for 10 min. […] Total protein concentration of the membrane fraction was determined by coomassie protein assay according to the manufacture's instruction (Bio-Rad) with BSA as a standard.
(§2) The reaction contents were 1:2500 diluted, from which 50 μl aliquot was used for quantification of […] concentration by EIA assay. […] The KM values of wild-type mPGES-1 and its mutants were calculated by using the GraphPad Prism 4.01 program.

The target of another assay is T3, mPGES-1 Q134E mutant (Homo sapiens, UniProt O14684, Q134E).
T3 sequence (O14684 1-152 Q134E): T1 sequence (O14684 1-152) with Q134E
In words: Activity assay, saturation kinetics for PGH2, Q134E mutant. It counts as biochemical. The settings on record: 2.5 mM GSH, 1-500 μM PGH2, errors expected to be very large, read-out: Experimental KM, this work. The method, then: as §1, §2

In the next assay the target is T4, wild-type mPGES-1 (Homo sapiens, UniProt O14684).
T4 sequence (O14684 1-152): T1 sequence (O14684 1-152)
In words: Activity assay, saturation kinetics for PGH2, wild-type mPGES-1. It counts as biochemical. Also on record: The specific oligonucleotide primers to full length of mPGES-1 were synthesized; made in house; host or cells: E. coli M15 (membrane fraction). The settings on record: 2.5 mM GSH, 1-500 μM PGH2, on ice, read-out: Experimental KM, this work. The method, then:
as §1, §2

SMILES strings stand for the structures. Substitutions are numbered along the chain they refer to.

Regarding `CS(=O)(=O)Nc1ccc([N+](=O)[O-])cc1OC1CCCCC1` [NS-398], the “Ability to inhibit mPGES-1” value on mPGES-1 is “able to inhibit mPGES-1”.
For the compound `CCCCC[C@H](O)/C=C/[C@@H]1[C@@H](C/C=C\CCCC(=O)O)[C@@H]2C[C@H]1OO2` [PGH2, prostaglandin H2], the Km (as a rule, the concentration of substrate that gives half-maximal velocity) at mPGES-1 Q36E mutant is around 1610 µM; at mPGES-1 Q134E mutant it was around 734 µM; at wild-type mPGES-1, 130 µM.

Values taken from patent US9081736B2, “Modeling of mPGES-1 three-dimensional structures: applications in drug design and discovery” (The University of Kentucky Research Foundation, priority 2007, dated 2015).
